Measurements as given in patent US20170027967A1, “PHARMACEUTICAL FORMULATIONS” (priority 2015, published 2017).
Like-named read-outs stand apart in the source and are kept apart here.

Settings: 40° C./75% RH open, 60° C. closed
Protocol: Studies were conducted to assess the stability of tenofovir alafenamide hemifumarate in the presence of (a) emtricitabine, and (b) emtricitabine and rilpivirine HCl.

## CC(C)OC(=O)[C@H](C)N[P@](=O)(CO[C@H](C)Cn1cnc2c(N)ncnc21)Oc1ccccc1 [tenofovir alafenamide hemifumarate]
In the presence of both emtricitabine and rilpivirine HCl
  rate of degradation of tenofovir alafenamide hemifumarate: further increased
In the presence of emtricitabine
  rate of degradation of tenofovir alafenamide hemifumarate: increased
